Assay results taken from patent US5510478A, “2-arylamidothiazole derivatives with CNS activity” (American Home Products Corporation, priority 1994, dated 1996).
Like-named read-outs stand apart in the source and are kept apart here. One block for each molecule: values may come before it.

Legend:
[1] = target: T1, dopamine D-2 receptor (Rattus norvegicus, UniProt P61169); test: Dopamine D-2 receptor binding, 3H-spiroperidol, limbic brain tissue
T1 construct: from tissue; host or cells: limbic brain tissue (homogenate)
T1 sequence (P61169 whole entry): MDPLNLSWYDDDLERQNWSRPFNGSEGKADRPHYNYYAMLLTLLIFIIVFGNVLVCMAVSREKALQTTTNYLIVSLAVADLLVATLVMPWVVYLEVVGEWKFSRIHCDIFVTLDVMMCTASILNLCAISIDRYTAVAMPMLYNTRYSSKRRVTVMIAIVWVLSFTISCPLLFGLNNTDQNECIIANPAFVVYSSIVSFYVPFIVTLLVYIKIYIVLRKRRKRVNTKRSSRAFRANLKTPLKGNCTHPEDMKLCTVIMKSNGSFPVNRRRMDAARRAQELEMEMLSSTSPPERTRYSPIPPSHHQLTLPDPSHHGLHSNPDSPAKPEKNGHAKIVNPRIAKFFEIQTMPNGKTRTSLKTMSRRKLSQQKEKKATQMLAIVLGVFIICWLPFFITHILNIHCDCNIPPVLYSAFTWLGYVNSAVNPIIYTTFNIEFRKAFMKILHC
Description: High affinity for the dopamine D-2 receptor was established by the standard experimental test procedure of Fields, et al., Brain Res., 136, 578 (1977) and Yamamura et al., eds., Neurotransmitter Receptor Binding, Raven Press, N.Y. (1978) wherein homogenized limbic brain tissue is incubated with ^3 H-spiroperidol and various concentrations of test compound, filtered and washed and shaken with Hydrofluor scintillation cocktail (National Diagnostics) and counted in a Packard 460 CD scintillation counter.

[2] = target: T2, M1 receptor (rat cortex) (Rattus norvegicus, UniProt P08482); test: M1 [3H]pirenzepine binding in rat cortex; settings: for inhibition at 1 µM: read-out: M1 3H PZ binding in rat cortex at 1 μM, % inhibition
T2 construct: from tissue; host or cells: rat brain cortex
T2 sequence (P08482 1-460): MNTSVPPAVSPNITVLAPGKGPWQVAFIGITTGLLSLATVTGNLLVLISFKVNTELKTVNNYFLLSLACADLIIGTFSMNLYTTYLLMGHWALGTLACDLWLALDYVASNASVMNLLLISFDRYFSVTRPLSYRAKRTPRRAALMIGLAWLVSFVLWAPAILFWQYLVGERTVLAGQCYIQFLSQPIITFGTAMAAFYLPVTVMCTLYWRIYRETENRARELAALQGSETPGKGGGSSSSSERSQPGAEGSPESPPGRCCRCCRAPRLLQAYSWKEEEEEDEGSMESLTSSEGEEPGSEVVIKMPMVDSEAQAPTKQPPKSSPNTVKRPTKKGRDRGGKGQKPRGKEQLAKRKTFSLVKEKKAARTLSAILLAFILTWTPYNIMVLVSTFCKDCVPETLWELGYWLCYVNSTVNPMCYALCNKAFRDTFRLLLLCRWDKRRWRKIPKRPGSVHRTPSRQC

[3] = tested on: 5-HT1A serotonin receptor; test: Serotonin 5-HT1A receptor binding, displacement of [3H]8-OHDPAT
Description: High affinity for the serotonin 5-HT1A receptor was established by testing the claimed compound's ability to displace ^3 H!8-OHDPAT (dipropylaminotetralin) from the 5-HT1A serotonin receptor following the procedure of Hall et al., J. Neurochem. 44, 1685 (1985). […] The anxiolytic activity of buspirone is believed to be, at least partially, due to its 5-HT1A receptor affinity (Vander Maclen et al., Eur. J. Pharmacol. 1986, 129 (1-2) 133-130).

[4] = tested on: 5-HT1A serotonin receptor; settings: standard for anxiolytic activity; cited from earlier work
[5] = tested on: patients with mild to moderate Alzheimer's Disease; settings: cited from earlier work; for memory improvement in patients (in words): mild to moderate Alzheimer's Disease
[6] = target: T3, M2 receptor (rat cerebellum) (Rattus norvegicus, UniProt P10980); test: biochemical; settings: read-out: M2 3H QNB binding in rat cerebellum, IC50
T3 sequence (P10980 1-466): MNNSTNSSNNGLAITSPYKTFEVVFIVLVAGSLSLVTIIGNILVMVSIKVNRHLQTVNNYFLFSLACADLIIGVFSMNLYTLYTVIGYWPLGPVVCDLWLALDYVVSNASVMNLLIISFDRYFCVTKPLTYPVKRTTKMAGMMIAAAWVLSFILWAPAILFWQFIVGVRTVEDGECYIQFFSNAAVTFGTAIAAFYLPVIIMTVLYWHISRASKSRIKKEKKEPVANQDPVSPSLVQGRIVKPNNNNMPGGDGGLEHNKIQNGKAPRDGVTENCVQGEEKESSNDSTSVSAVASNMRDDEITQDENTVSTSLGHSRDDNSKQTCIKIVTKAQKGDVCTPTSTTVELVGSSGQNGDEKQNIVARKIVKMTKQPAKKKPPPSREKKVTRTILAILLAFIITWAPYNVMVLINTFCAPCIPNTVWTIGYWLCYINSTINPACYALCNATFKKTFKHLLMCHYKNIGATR

[7] = tested on: Male CFW mice (scopolamine-induced hyperactivity); test: Reversal of scopolamine-induced hyperactivity in mouse swim tank; format: in vivo; settings: ip, 5 min, 0.3 mg/kg scopolamine.HBr, swim distance, read-out: minimum effective dose (MED), reversing the hyperactivity of scopolamine treated animals
Description: The compound of Example 1 was also tested in accordance with the procedure of Symons et al, Soc. Neuroscience Abstracts 12:2, 897 (1986) in which Male CFW mice, 25 to 35 grams in weight are given the test compound in suitable vehicle plus 0.3 mg/kg scopoolamine.HBr in suitable vehicle, i.p.(3 groups of 12 animals each) or vehicle alone (1 group of 12 animals ) or vehicle plus scopolamine. HBr (1 group of 12 animals). The rates are placed in a swim tank, individually, containing 10 cm H2 O for a period of 5 minutes and the distance each animal swims is recorded.

[8] = tested on: Sprague-Dawley male rats (scopolamine-disrupted performance); test: Eight arm radial maze, reversal of scopolamine disrupted rat performance; format: in vivo; settings: ip, scopolamine HBr 0.3 mg/kg s.c., test compound i.p., read-out: minimum effective dose (MED), reversal of scopolamine disrupted rat performance
Description: The compound of Example 1 was also tested in the eight arm radial maze test procedure in which Sprague-Dawley male rats at 85% of their free feeding weight are trained to obtain two food pellets from food cups placed at the ends of four of the eight arms radiating from a circular central area of the maze, in a five minute period. After training to a level of error (return to a previously entered arm is error) equal to or less than 2, the rats performance is disrupted with scopolamine HBr (0.3 mg/kg, s.c.) and test compound dosage (i.p.). The number of errors are then determined and compared with control receiving scopolamine alone.

[9] = in vivo; cited from earlier work

inhibition at 1 µM [1]: 34%
SMILES: O=C(Cc1csc(NC(=O)c2ccc(F)cc2)n1)OCCN1CCN(c2ncccn2)CC1 [Example 16, 2-(4-Fluorobenzoyl)amino!-4-thiazoleacetic acid 2-4-(2-pyrimidinyl)-1-piperazinyl!ethyl ester]

SMILES: O=C(Nc1nc(C(=O)NCCCCN2CC3CCC(CC3)C2)cs1)c1ccc(O)cc1 [Example 11, N-4-(3-Azabicyclo 3.2.2!non-3-yl)butyl-2-4-hydroxybenzoyl!amino!-4-thiazolecarboxamide]
inhibition at 1 µM [2]: 63.9%

inhibition at 1 µM [1]: 91%
5-HT1A Binding (% Inhibition at 1 μM) [3]: 89%
SMILES: COc1ccccc1N1CCN(CCCOC(=O)Cc2csc(NC(=O)c3cc(C(C)(C)C)c(O)c(C(C)(C)C)c3)n2)CC1 [Example 14, 2-3,5-Bis(1,1-dimethylethyl)-4-hydroxyphenyl!carbonyl!amino!-4-thiazoleacetic acid 3-4-(2-methoxyphenyl)-1-piperazinyl!propyl ester]

SMILES: O=C(Nc1nc(C(=O)NCCCN2CC3CCC(CC3)C2)cs1)c1ccc(O)cc1 [Example 10, N-3-(3- Azabicyclo 3.2.2!non-3-yl)propyl-2-4-hydroxybenzoyl!amino-4-thiazolecarboxamide]
inhibition at 1 µM [2]: 58.7%

inhibition at 1 µM [1]: 51%
SMILES: COc1ccccc1N1CCN(CCOC(=O)Cc2csc(NC(=O)c3cc(C(C)(C)C)c(O)c(C(C)(C)C)c3)n2)CC1 [Example 15]

SMILES: CC(C)(C)c1cc(C(=O)Nc2nc(C(=O)OCCN3CC4CCC(CC4)C3)cs2)cc(C(C)(C)C)c1O [Example 4, 2-3.5-Bis(1.1-dimethylethyl)-4-hydroxybenzoyl!amino !-4-thiazolecarboxylic acid 2-(3-azabicyclo 3.2.2.!non-3-yl)ethyl ester]
inhibition at 1 µM [2]: 90.6%

SMILES: O=C(Cc1csc(NC(=O)c2ccc(F)cc2)n1)NCCCCN1CC2CCC(CC2)C1 [Example 12, N-4-(3-Azabicyclo 3.2.2!non-3-yl)butyl-2-(4-fluorobenzoyl)amino!-4-thiazoleacetamide]
inhibition at 1 µM [2]: 57%

SMILES: CC(C)(C)c1cc(C(=O)Nc2nc(C(=O)NCCCCN3CC4CCC(CC4)C3)cs2)cc(C(C)(C)C)c1O [Example 6, N-4-(3-Azabicyclo 3.2.21non-3-yl)butyl!-2-3,5-bis(1,1-dimethylethyl)-4-hydroxybenzoyl!amino!-4-thiazolecarboxamide]
inhibition at 1 µM [2]: 86%

SMILES: O=C1CC2(CCCC2)CC(=O)N1CCCCN1CCN(c2ncccn2)CC1 [buspirone]
5-HT1A receptor affinity (in words) [4]: potent affinity

inhibition at 1 µM [1]: 81%
5-HT1A Binding (% Inhibition at 1 μM) [3]: 100%
SMILES: COc1ccccc1N1CCN(CCCOC(=O)Cc2csc(NC(=O)c3ccc(F)cc3)n2)CC1 [Example 13, 2-(4-Fluorobenzoyl)amino!-4-thiazoleacetic acid 3-4-(2-methoxyphenyl)-1-piperazinyl!propyl ester]

SMILES: Nc1c2c(nc3ccccc13)CCCC2 [tacrine]
adverse side effects (in words) ([5]; especially at the higher doses where it is most effective): adverse side effects
memory improvement in patients (in words) [5]: improvement in memory

inhibition at 0.1 µM ([1]; 0.1 μM): 5%
SMILES: CC(C)(C)c1cc(C(=O)Nc2nc(CC(=O)NCCN3CCN(c4ncccn4)CC3)cs2)cc(C(C)(C)C)c1O [Example 17]

SMILES: O=C(Nc1nc(C(=O)NCCCCN2CC3CCC(CC3)C2)cs1)c1ccc(OCc2ccccc2)cc1 [Example 9]
inhibition at 1 µM [2]: 62%

SMILES: CC(C)(C)c1cc(C(=O)Nc2nc(C(=O)NC3CN4CCC3CC4)cs2)cc(C(C)(C)C)c1O (stereo not drawn) [Example 7]
inhibition at 1 µM [2]: 104%

SMILES: O=C(Nc1nc(C(=O)NC2CN3CCC2CC3)cs1)c1ccc(OCc2ccccc2)cc1 (stereo not drawn) [Example 8]
inhibition at 1 µM [2]: 85.8%

inhibition at 1 µM ([2]; 1 μM, rat cortex, [3H]pirenzepine): 98.6%
SMILES: CN(C)CCNC(=O)c1csc(NC(=O)c2cc(C(C)(C)C)c(O)c(C(C)(C)C)c2)n1 [Example 2, 2-3,5,-Bis(1.1-dimethylethyl)-4-hydroxybenzoyl!amino!-N-2-(dimethylamino)ethyl!-4-thiazolecarboxamide]

SMILES: CC(C)(C)c1cc(C(=O)Nc2nc(C(=O)NCCN3CC4CCC(CC4)C3)cs2)cc(C(C)(C)C)c1O [Example 3]
inhibition at 1 µM [2]: 70.5%

SMILES: CN(C)CCOC(=O)c1csc(NC(=O)c2cc(C(C)(C)C)c(O)c(C(C)(C)C)c2)n1 [Example 1, 2-3.5.-Bis(1.1-dimethylethyl)-4-hydroxybenzoyl!amino!-4-thiazolecarboxylic acid 2-(dimethylamino)ethyl ester]
IC50 ([2]; rat cortex, [3H]pirenzepine, read-out: M1 3H PZ binding in rat cortex, IC50): 0.054 µM
IC50 [6]: 3.4 µM
minimal effective dose [7]: 3 mg/kg
minimal effective dose [8]: 3 mg/kg

SMILES: CC(C)(C)c1cc(C(=O)Nc2nc(C(=O)NCCCN3CC4CCC(CC4)C3)cs2)cc(C(C)(C)C)c1O [Example 5, N-3-(3-Azabicyclo 3.2.2!non-3-yl)propyl-2-3.5-bis(1.1-dimethylethyl)-4-hydroxybenzoyl!amino!-4-thiazolecarboxamide]
inhibition at 1 µM [2]: 78%

SMILES: COC(=O)C1=CCCN(C)C1 [arecoline]
half-life (in words) [9]: short half-life
memory improvement in patients (in words) [5]: memory improvement
